“Also recorded” adds a separate entry of the source.
Experiments:
[1] = tested on: Bax/Bcl-2-cytochrome C-Caspase-3 mitochondrial apoptosis pathway; PI3K-p-Akt survival signaling pathway; assay: Neuronal apoptosis after focal cerebral ischemia-reperfusion injury; set-up: species or system rats; settings: rat, in vivo
Source text: 2.3 The Protective Effect of BZP on Neuronal Apoptosis after Focal Cerebral Ischemia-Reperfusion Injury in Rats: […]

[2] = Pharmacokinetics after intravenous injection in rats; type: in vivo
[3] = BZP1601 Phase I single dose pharmacokinetics in healthy subjects
Procedure: Analysis population: Any subjects who have received BZP and undergone biological sample collections and can undergo pharmacokinetic analysis will be included in the pharmacokinetic analysis (excluding the 12.5 mg of pre-study group). The study analysis included 6 BPZ groups (respectively 25 mg, 50 mg, 100 mg, 200 mg, 300 mg, and 400 mg) and the placebo group, and the number of subjects enrolled in each group was 8, 8, 8, 8, 8, 8, 12 subjects, a total of 60 subjects. All 60 subjects enrolled in the formal study were included in the pharmacokinetic analysis set.
The blood samples were collected at 0 minutes, 20 minutes, 40 minutes, minutes (end of infusion), 1.25 hours, 1.5 hours, 2 hours, 2.5 hours, 3 hours, 4 hours, 6 hours, 8 hours, 12 hours, 16 hours, 24 hours, 36 hours, and 48 hours after administration in BZP1601 trial, while in the BZP1702 trial, on the first day of administration, the blood samples were collected only by 24 hours after administration.

[4] = Long-term toxicity test, 13 consecutive weeks, rats; type: in vivo
Procedure: (§1) These gradually returned to normal within 1 hour. […] The nervous system and respiratory system reactions in the long-term toxicity test were transient reactions, and the slight anemia and damage to the liver also recovered within the observation period.

[5] = Long-term toxicity test, 13 consecutive weeks, dogs; type: in vivo
Procedure: as §1

[6] = tested on: cardiovascular system; assay: Safety pharmacology, cardiovascular system; type: in vivo, dogs
Procedure: These changes all recovered within 0.5 hours after administration. The dose range of […] BZP has no effect on the II-lead ECG.

[7] = Phase I safety and tolerability in healthy subjects (BZP1601 single dose, BZP1702 multiple doses); type: in vivo, human
Source text: Analysis population: same as BZP1601 trial. All 36 subjects enrolled were included in the safety analysis data set, 30 subjects in the BZP group and 6 subjects in the placebo group.
The AE related to the study drug occurred from a few minutes to the 9th day after administration, and the symptoms turned to disappear without any clinical intervention.

[8] = tested on: SYN, GAP-43, BDNF, GFAP, NOGO-A in the ischemic penumbra area; assay: Neuroplasticity after focal cerebral ischemia-reperfusion injury; type: in vivo, rats
Source text: 2.4 Effect of BZP on Neuroplasticity after Focal Cerebral Ischemia-Reperfusion Injury in Rats: […]

[9] = tested on: neurobehavior; assay: Safety pharmacology, neurobehavior; type: in vivo, rats
Procedure: These changes all recovered within 4 hours after drug withdrawal. The effective dose (12 mg/kg) of BZP to protect against ischemia-reperfusion injury in rats was lower than the dose (50 mg/kg) that caused neurological effects in rats.

[10] = Pharmacokinetics after intravenous injection in dogs; type: in vivo
[11] = tested on: platelet aggregation; assay: Rat in vivo platelet aggregation
[12] = tested on: respiratory system; assay: Safety pharmacology, respiratory system; type: in vivo, rats; settings: single intravenous injection 25-100 mg/kg
Procedure: In terms of the respiratory system, a single intravenous injection of BZP 25-100 mg/kg had no effect on rats.

[13] = tested on: TNF-α, IL-6, IL-1β, NF-κB, COX-2, ICAM-1; assay: Inflammatory response induced by focal cerebral ischemia-reperfusion injury, immunohistochemical staining; type: in vivo, rats
Source text: 2.2 Effects of BZP on Inflammatory Response Induced by Focal Cerebral Ischemia-Reperfusion Injury in Rats:
The results of TNF-α, IL-6, IL-1β, NF-κB, Cox-2, ICAM-1 immunohistochemical staining
BZP can inhibit the cellular inflammatory response induced by cerebral ischemia-reperfusion injury, manifested as inhibiting the expression of TNF-α-IL-6-IL-1β-NF-κB-COX-2-ICAM-1 loop.

[14] = 7 consecutive days, 6.0 mg/kg, rats
[15] = single intravenous infusion, 25-400 mg
[16] = 12 mg/kg of BZP vs 9.6 mg/kg NBP-K and 10.5 mg/kg Br-NBP
[17] = low, middle and high dose, compared with the model group

CCCCC(O)c1ccc(Br)cc1C(=O)[O-].[Na+] (stereo not drawn) [BZP, sodium 5-bromo-2-(α-hydroxypentyl)benzoate]
Bax/Bcl-2-cytochrome C-Caspase-3 mitochondrial apoptosis pathway [1]: inhibiting | PI3K-p-Akt survival signaling pathway [1]: up-regulating | loss of nerve cells and apoptosis rate [1]: reduce the loss of nerve cells and reduce the apoptosis rate | AUC0-t after the last administration compared with the first [2, 14]: significantly higher than that of the first time | Cmax, single dose compared with multiple doses [2, 14]: no difference | accumulation in the body ([2]; intravenous, 7 consecutive days, 6.0 mg/kg, rats): did not accumulate | AUC0-t, female compared with male rats ([2]; single intravenous injection): significantly higher than that in male rats | Cmax and AUC0-t versus dose ([2]; single intravenous injection of BZP 0.75-12.0 mg/kg, rats): basically conformed to linear kinetics | debrominated metabolites ([3]; 200 mg group): no debrominated metabolites were found | metabolites other than BNBP ([3]; BZP1601): did not find other meaningful metabolites except BNBP | Tmax / time of peak blood drug level ([3]; BZP1601, median Tmax similar in each dose group): basically reached the peak blood drug level after the end of administration | half-life ([3]; both, human, plasma, iv): ~8 h | difference in AUC0-t and Cmax between subjects of different genders ([3]; single dose 25-400 mg): not significantly different; also recorded: There was no significant | cumulative urine excretion rate across dose groups ([3]; single dose, each dose group): basically the same | relationship of AUC0-t and Cmax in plasma with the dose [3, 15]: linearly related to the dose | time to return to normal ([4]; 150 mg/kg): ≤ 1 h | clinical signs at the end of each administration ([4]; 150 mg/kg intravenous once a day, 13 weeks): shortness of breath, prone position, occasional salivation, and disappearance of righting reflex | hematology, blood biochemistry, eye examination and urine routine ([4]; 13 weeks): no obvious abnormalities | NOAEL at 13 weeks ([4]; rat, in vivo, long-term toxicity test, read-out: NOAEL dose): 50 mg/kg | clinical signs during and after administration ([5]; 50 mg/kg, some dogs): tremors in the head and limbs, loose stools, vomiting, and salivation | clinical signs during each administration ([5]; 150 mg/kg intravenous once a day, 13 weeks, dogs): vomited white foam-like substances, salivation, head and whole body tremors, spasms/convulsions | anemia and liver findings ([5]; 150 mg/kg, dogs): mild anemia and liver damage | NOAEL at 13 weeks ([5]; dog, in vivo, long-term toxicity test, dogs, read-out: NOAEL dose): 50 mg/kg | recovery of symptoms ([5]; dogs, after drug withdrawal): all recovered after 28 days of drug withdrawal | time to recovery of blood pressure changes after administration ([6]; 50 mg/kg intravenous): ≤ 0.5 h | systolic blood pressure, diastolic blood pressure and mean arterial pressure ([6]; 0.25 hours after intravenous injection of 50 mg/kg): small transient increase | effect on the II-lead ECG ([6]; dose range of 5-50 mg): no effect | incidence of AE with dose increase ([7]; both Phase I trials): does not increase with the dose increase; also recorded: did not increase with dose increase | overall safety and tolerability in healthy subjects ([7]; both Phase I trials): safe and well tolerated | proportion of AE, BZP groups compared with the placebo group ([7]; both Phase I trials): no statistical difference | death, SAE, AE leading to drop out, other important AE ([7]; both clinical trials): no death, SAE, AE leading to drop out, or other important AE | dose-limiting toxicity (DLT) ([7]; both clinical trials): No dose-limiting toxicity (DLT) occurred | AE of more than mild severity ([7]; multiple dose trial, 100 mg group, AE of others mild): one case of moderate hypotension | AE judged by the investigator to be related to study drug, multiple doses ([7]; multiple doses, dose group per AE): administration site pain; also recorded: hypotension; also recorded: hypokalemia; also recorded: decreased diastolic blood pressure | safety and tolerance ([7]; multiple intravenous infusions, 50 to 200 mg): good safety and tolerance | AE judged by the investigator to be related to study drug, single dose ([7]; single dose, dose group per AE): coagulopathy; also recorded: mild bradycardia; also recorded: decreased white blood cell counts; also recorded: decreased neutrophil cell count/percentage; also recorded: first-degree atrioventricular block; also recorded: proteinuria | safety and tolerance [7, 15]: good safety and tolerance | NOGO-A expression ([8]; ischemic penumbra area): down-regulating | expression of SYN, GAP-43, BDNF and GFAP ([8]; ischemic penumbra area): increasing | nerve repair and recovery of motor function after cerebral ischemic injury ([8]; rat, in vivo): promote nerve repair | time to recovery of neurobehavioral changes after drug withdrawal ([9]; 50 and 100 mg/kg): ≤ 4 h | dose that caused neurological effects in rats ([9]; single intravenous injection): 50 mg/kg | body temperature ([9]; single intravenous injection 50 mg/kg and 100 mg/kg): decrease in body temperature | neurobehavioral signs at high dose ([9]; single intravenous injection 100 mg/kg): decreased activity, erect hair, decreased frequency of defecation and urination and loss of pupillary stimulation reflex | Cmax and AUC0-t, first compared with last administration ([10]; 7 consecutive days, 2.0 mg/kg, dogs): no statistically significant differences | accumulation in the body ([10]; intravenous, 7 consecutive days, 2.0 mg/kg, dogs): did not accumulate | difference between male and female dogs ([10]; single intravenous injection): no significant difference | Cmax and AUC0-t versus dose ([10]; single intravenous injection of BZP 1.0-4.0 mg/kg, dogs): basically conformed to linear kinetics | platelet aggregation inhibition rate, ADP ([11]; first (low) dose group): 23.89% | platelet aggregation inhibition rate, arachidonic acid ([11]; first (low) dose group): 42.08% | platelet aggregation inhibition rate, thrombin ([11]; first (low) dose group): 23.87% | platelet aggregation inhibition rate, ADP ([11]; second (medium) dose group): 34.42% | platelet aggregation inhibition rate, arachidonic acid ([11]; second (medium) dose group): 60.32% | platelet aggregation inhibition rate, thrombin ([11]; second (medium) dose group): 37.75% | platelet aggregation inhibition rate, ADP ([11]; third (high) dose group): 44.14% | platelet aggregation inhibition rate, arachidonic acid ([11]; third (high) dose group): 72.20% | platelet aggregation inhibition rate, thrombin ([11]; third (high) dose group): 55.47% | effect on the respiratory system [12]: no effect | number of positive cells, comparison with NBP-K and Br-NBP groups [13, 16]: better than 9.6 mg/kg of NBP-K group and 10.5 mg/kg of Br-NBP group | optical density value, comparison with NBP-K and Br-NBP groups [13, 16]: better than 9.6 mg/kg of NBP-K group and 10.5 mg/kg of Br-NBP group | expression of TNF-α, IL-6, IL-1β, NF-κB, COX-2, ICAM-1, immunohistochemical staining optical density value [13, 17]: significantly reduced | expressions of TNF-α, IL-6, IL-1β, NF-κB, COX-2, ICAM-1, number of immunohistochemical positive cells [13, 17]: significantly reduced
